Assays:
Assay type in all cases: in vivo
[1] = system: ducksalad (Heteranthera limosa); assay: Test B flooded paddy test, plant response rating; conditions: 250 g ai/ha; Flood; scale of 0 to 100 where 0 is no effect and 100 is complete control; 13 to 15 days
How it was run: (§1)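 Under a constant 3 cm flood, test compounds went directly into the paddy water. Following 13 to 15 days of greenhouse growth, treated species and controls were compared by eye.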

rice (Oryza sativa) = assay: Test B flooded paddy test, plant response rating; conditions: 250 g ai/ha; Flood; scale of 0 to 100 where 0 is no effect and 100 is complete control; 13 to 15 days
How it was run: as §1

[2] = system: sedge, umbrella (small-flower umbrella sedge, Cyperus difformis); assay: Test B flooded paddy test, plant response rating; conditions: 250 g ai/ha; Flood; scale of 0 to 100 where 0 is no effect and 100 is complete control; 13 to 15 days
How it was run: as §1

[3] = system: barnyardgrass (Echinochloa crus-galli); assay: Test B flooded paddy test, plant response rating; conditions: 250 g ai/ha; Flood; scale of 0 to 100 where 0 is no effect and 100 is complete control; 13 to 15 days
How it was run: as §1

kochia (Kochia scoparia) [4] = assay: Test A preemergence, visual injury rating; conditions: for Kochia plant response rating: 0 to 100 scale (0 no effect, 100 complete control); for Plant response rating, Kochia: 31 g ai/ha, 0 to 100 scale, 0 no effect, 100 complete control
How it was run: (§2)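 Visual injury scored 0–100 (100 = complete control) against untreated controls about 10 days after treatment in a greenhouse. Test chemicals, formulated with surfactant in non-phytotoxic solvent, were sprayed on soil preemergence or on 2-10 cm, one- to two-leaf plants postemergence.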

[5] = system: pigweed (Amaranthus retroflexus); assay: Test A preemergence, visual injury rating; conditions: for Pigweed plant response rating: 0 to 100 scale (0 no effect, 100 complete control); for Plant response rating, Pigweed: 31 g ai/ha, 0 to 100 scale, 0 no effect, 100 complete control
How it was run: as §2

[6] = system: Italian ryegrass (Lolium multiflorum); assay: Test A preemergence, visual injury rating; conditions: for Ryegrass, Italian plant response rating: 0 to 100 scale (0 no effect, 100 complete control); for Plant response rating, Ryegrass, Italian: 31 g ai/ha, 0 to 100 scale, 0 no effect, 100 complete control
How it was run: as §2

[7] = system: ragweed (common ragweed, Ambrosia elatior); assay: Test A preemergence, visual injury rating; conditions: for Ragweed plant response rating: 0 to 100 scale (0 no effect, 100 complete control); for Plant response rating, Ragweed: 31 g ai/ha, 0 to 100 scale, 0 no effect, 100 complete control
How it was run: as §2

[8] = system: giant foxtail (Setaria faberii); assay: Test A preemergence, visual injury rating; conditions: for Foxtail, Giant plant response rating: 0 to 100 scale (0 no effect, 100 complete control); for Plant response rating, Foxtail, Giant: 31 g ai/ha, 0 to 100 scale, 0 no effect, 100 complete control
How it was run: as §2

[9] = system: barnyardgrass (Echinochloa crus-galli); assay: Test A preemergence, visual injury rating; conditions: for Barnyardgrass plant response rating: 0 to 100 scale (0 no effect, 100 complete control); for Plant response rating, Barnyardgrass: 31 g ai/ha, 0 to 100 scale, 0 no effect, 100 complete control
How it was run: as §2

[10] = system: blackgrass (Alopecurus myosuroides); assay: Test A postemergence, visual injury rating; conditions: 0 is no effect, 100 is complete control; for Blackgrass plant response rating: 0 to 100 scale, approximately 10 days
How it was run: as §2

kochia (Kochia scoparia) [11] = assay: Test A postemergence, visual injury rating; conditions: 0 is no effect, 100 is complete control; for Kochia plant response rating: 0 to 100 scale, approximately 10 days
How it was run: as §2

[12] = system: pigweed (Amaranthus retroflexus); assay: Test A postemergence, visual injury rating; conditions: 0 is no effect, 100 is complete control; for Pigweed plant response rating: 0 to 100 scale, approximately 10 days
How it was run: as §2

[13] = system: galium (catchweed bedstraw, Galium aparine); assay: Test A postemergence, visual injury rating; conditions: 0 is no effect, 100 is complete control; for Galium plant response rating: 0 to 100 scale, approximately 10 days
How it was run: as §2

[14] = system: Italian ryegrass (Lolium multiflorum); assay: Test A postemergence, visual injury rating; conditions: 0 is no effect, 100 is complete control; for Ryegrass, Italian plant response rating: 0 to 100 scale, approximately 10 days
How it was run: as §2

corn (Zea mays) = assay: Test A postemergence, visual injury rating; conditions: 0 is no effect, 100 is complete control; for Corn plant response rating: 0 to 100 scale, approximately 10 days
How it was run: as §2

[15] = system: ragweed (common ragweed, Ambrosia elatior); assay: Test A postemergence, visual injury rating; conditions: 0 is no effect, 100 is complete control; for Ragweed plant response rating: 0 to 100 scale, approximately 10 days
How it was run: as §2

[16] = system: giant foxtail (Setaria faberii); assay: Test A postemergence, visual injury rating; conditions: 0 is no effect, 100 is complete control; for Foxtail, Giant plant response rating: 0 to 100 scale, approximately 10 days
How it was run: as §2

[17] = system: wheat (Triticum aestivum); assay: Test A postemergence, visual injury rating; conditions: 0 is no effect, 100 is complete control; for Wheat plant response rating: 0 to 100 scale, approximately 10 days
How it was run: as §2

[18] = system: barnyardgrass (Echinochloa crus-galli); assay: Test A postemergence, visual injury rating; conditions: 0 is no effect, 100 is complete control; for Barnyardgrass plant response rating: 0 to 100 scale, approximately 10 days
How it was run: as §2

| Compound | Plant response rating, Ducksalad [1] | Plant response rating, Rice (rice (Oryza sativa)) | Plant response rating, Sedge, Umbrella [2] | Plant response rating, Barnyardgrass [3] | Kochia plant response rating (kochia (Kochia scoparia) [4]; 125 g ai/ha) | Pigweed plant response rating ([5]; 125 g ai/ha) | Ryegrass, Italian plant response rating ([6]; 125 g ai/ha) | Ragweed plant response rating ([7]; 125 g ai/ha) | Foxtail, Giant plant response rating ([8]; 125 g ai/ha) | Barnyardgrass plant response rating ([9]; 125 g ai/ha) | Blackgrass plant response rating ([10]; 125 g ai/ha) | Kochia plant response rating (kochia (Kochia scoparia) [11]; 125 g ai/ha) | Pigweed plant response rating ([12]; 125 g ai/ha) | Galium plant response rating ([13]; 125 g ai/ha) | Ryegrass, Italian plant response rating ([14]; 125 g ai/ha) | Corn plant response rating (corn (Zea mays); 125 g ai/ha) | Ragweed plant response rating ([15]; 125 g ai/ha) | Foxtail, Giant plant response rating ([16]; 125 g ai/ha) | Wheat plant response rating ([17]; 125 g ai/ha) | Barnyardgrass plant response rating ([18]; 125 g ai/ha) | also measured |
| --- | --- | --- | --- | --- | --- | --- | --- | --- | --- | --- | --- | --- | --- | --- | --- | --- | --- | --- | --- | --- | --- |
| O=C(SCC(F)(F)F)c1c(Br)cccc1Oc1ncc(Cl)cn1 [Compound 85] | 0 | 0 | 0 | 0 | 0 | 0 | 0 | 0 | 0 | 0 | 0 | 30 | 30 | 30 | 0 | 10 | 0 | 0 | 0 | 0 | Kochia plant response rating (kochia (Kochia scoparia) [4]; 500 g ai/ha): 0; Pigweed plant response rating ([5]; 500 g ai/ha): 60; Ryegrass, Italian plant response rating ([6]; 500 g ai/ha): 0; Ragweed plant response rating ([7]; 500 g ai/ha): 0; Foxtail, Giant plant response rating ([8]; 500 g ai/ha): 70; Barnyardgrass plant response rating ([9]; 500 g ai/ha): 10; Blackgrass plant response rating (0 to 100 scale) ([10]; 500 g ai/ha): 0; Kochia plant response rating (0 to 100 scale) (kochia (Kochia scoparia) [11]; 500 g ai/ha): 80; Pigweed plant response rating (0 to 100 scale) ([12]; 500 g ai/ha): 70; Galium plant response rating (0 to 100 scale) ([13]; 500 g ai/ha): 90; Ryegrass, Italian plant response rating (0 to 100 scale) ([14]; 500 g ai/ha): 0; Corn plant response rating (0 to 100 scale) (corn (Zea mays); 500 g ai/ha): 40; Ragweed plant response rating (0 to 100 scale) ([15]; 500 g ai/ha): 0; Foxtail, Giant plant response rating (0 to 100 scale) ([16]; 500 g ai/ha): 60; Wheat plant response rating (0 to 100 scale) ([17]; 500 g ai/ha): 20; Barnyardgrass plant response rating (0 to 100 scale) ([18]; 500 g ai/ha): 20 |
| CCCCc1c(C#N)cccc1Oc1ncc(Cl)cn1 [Compound 86] | 100 | 20 | 100 | 40 | 100 | 100 | 20 | 0 | 50 | 90 | 20 | 100 | 40 | 70 | 20 | 30 | 0 | 30 | 40 | 40 | Plant response rating, Kochia (kochia (Kochia scoparia) [4]): 10; Plant response rating, Pigweed [5]: 20; Plant response rating, Ryegrass, Italian [6]: 0; Plant response rating, Ragweed [7]: 0; Plant response rating, Foxtail, Giant [8]: 0; Plant response rating, Barnyardgrass [9]: 0; Blackgrass plant response rating ([10]; 31 g ai/ha): 0; Kochia plant response rating (kochia (Kochia scoparia) [11]; 31 g ai/ha): 90; Pigweed plant response rating ([12]; 31 g ai/ha): 30; Galium plant response rating ([13]; 31 g ai/ha): 30; Ryegrass, Italian plant response rating ([14]; 31 g ai/ha): 0; Corn plant response rating (corn (Zea mays); 31 g ai/ha): 30; Ragweed plant response rating ([15]; 31 g ai/ha): 0; Foxtail, Giant plant response rating ([16]; 31 g ai/ha): 10; Wheat plant response rating ([17]; 31 g ai/ha): 30; Barnyardgrass plant response rating ([18]; 31 g ai/ha): 20 |
| CCCCCc1c(C#N)cccc1Oc1ncc(Cl)cn1 [Compound 87] | 100 | 35 | 100 | 50 | 90 | 100 | 20 | 0 | 100 | 100 | 70 | 100 | 60 | 70 | 30 | 50 | 0 | 90 | 30 | 100 | Plant response rating, Kochia (kochia (Kochia scoparia) [4]): 30; Plant response rating, Pigweed [5]: 40; Plant response rating, Ryegrass, Italian [6]: 0; Plant response rating, Ragweed [7]: 0; Plant response rating, Foxtail, Giant [8]: 60; Plant response rating, Barnyardgrass [9]: 70; Blackgrass plant response rating ([10]; 31 g ai/ha): 10; Kochia plant response rating (kochia (Kochia scoparia) [11]; 31 g ai/ha): 100; Pigweed plant response rating ([12]; 31 g ai/ha): 40; Galium plant response rating ([13]; 31 g ai/ha): 30; Ryegrass, Italian plant response rating ([14]; 31 g ai/ha): 0; Corn plant response rating (corn (Zea mays); 31 g ai/ha): 40; Ragweed plant response rating ([15]; 31 g ai/ha): 0; Foxtail, Giant plant response rating ([16]; 31 g ai/ha): 40; Wheat plant response rating ([17]; 31 g ai/ha): 20; Barnyardgrass plant response rating ([18]; 31 g ai/ha): 40 |
